Source: patent US20030113813A1, “Methods and devices for the integrated discovery of cell culture environments” (priority 2001, published 2003)

System: MC3T3-E1 cells
Assay: Cell attachment and growth on modified (HA-coated, periodate-oxidized) surfaces carrying bioactive agents
Type: cell-based, murine
Conditions: for cell attachment and growth: FIG. 4A, immobilized HA surface treated with lowest (3 mM) periodate concentration, collagen 3.2 mg/ml, laminin 2 mg/ml
Description: MC3T3-E1 cells were used to determine the effect of different bioactive agents for creation of bioactive surfaces influencing the growth and differentiation of these osteoblasts (also considered to be osteogenic stem cells). These cells are from a clonal line of murine calvaria-derived osteoblast (establishment of a clonal osteogenic cell line from newborn mouse calvaria describe in J Oral Biol 23:899 (1981)). The cells are maintained in α-MEM (GIBCO Catalog #12561) supplemented with 2% fetal calf serum (FCS; inactivated) and 100 units or μg/ml penicillin/streptomycin.
The cells were seeded at a concentration of approximately 10^4 cells/20 ml culture medium in a 250 ml canted neck polystyrene tissue culture-treated flask. Cells were cultured until they reach about 2×10^6 cells/flask. Cells were harvested and resuspended in 5 ml of α-MEM with 2% FCS to a final cell concentration of about 4×10^4 cells/100 μl.
The surface modified slide was placed into a polystyrene Petri dish and covered with the cells for 30 minutes. […] To quantitate cell attachment and growth, an image of the slide or other surface after staining with hematoxylin/eosin was captured using a color scanner, and the density determined using the Scion Image analysis program.

Row | Substance | cell growth on ECM peptide surface vs. control surface (FIGS. 4B-4F, RGDSP 1 mg/ml deposited on oxidized HA surface) | cell attachment and growth | cell density on bioactive agent (FIG. 2, cells grown on microarray of bioactive agents coupled to HA surface, fluorescent staining)
1 | Arg-Gly-Asp-Ser-Pro (RGDSP) (printed: Arg-Gly-Asp-Ser-Pro) [ECM adhesion peptide from AnaSpec Inc, reference compound] | cells grew only on the surfaces onto which RGDSP was deposited | – | –
2 | collagen | – | supported cell attachment and growth | –
3 | laminin | – | supported cell attachment and growth | cell density was greater on Vitrogen™ than on laminin
